Where a name gives a salt, the structure may show the parent alone.
How the values were obtained:
[1] = target: T1, iNOS (Mus musculus, UniProt P29477); test: iNOS enzyme assay, competition experiment I (LEADseeker beads, 14C arginine); assay type: biochemical, murine; design: purchased Cayman Chemical Company 60864; conditions: from dose response curve FIG. 8; 1 hour room temperature; read-out: IC50 (50% inhibition of the enzyme)
Protocol: The preferential capture of arginine compared to citrulline can be utilised in a signal decrease assay. The assay is performed in a 3074 Costar 384 well plate Enzyme (iNOS murine macrophage, recombinant. Cayman catalogue no. 60864, 112 units/ml) is diluted 10 times in assay buffer (1.2 mM NADPH, 3.6 mM DTT, 4.8 uM FAD, 4.8 uM FMN, 4.8 uM biopterin in 50 mM TRIS pH 7.5. Diluted enzyme (10 μl) is incubated with 1.5 μl inhibitor/agonist dissolved in 100% DMSO along with 10 μl ^14C arginine tracer (APBiotech, CFB63, 300 mCi/mMol stock solution diluted in assay buffer to 100,000-150,000 cpm in 10 μl) for 1 hour at room temperature, protected from light. 10 μl LEADseeker beads suspended in a “stop” solution (360 μM aminoguanidine, 20 mM EDTA, pH 8) to 100 mg/ml (i.e 10 μl=1 mg/well) are added and the mixture incubated at room temperature for at least 2 hours. Control reactions were carried out by replacing the inhibitor with 1.5 μl water. The results are read by counting in LEADseeker™ (binning at 2×2, Q coincidence and imaged for 5 mins).
The baseline was determined using 1.5 μl 1 mM aminoguanidine (final concentration 70 μM) and maximum response using 1.5 μl 30 mM aminoguanidine (final concentration).

[2] = target: T1, iNOS; test: iNOS SPA enzyme assay, effect of solvents; assay type: biochemical, murine; design: purchased Cayman Chemical Company 60864; conditions: for Time (mins) cpm, 0: 0 min; for Time (mins) cpm, 5: 5 min; for Time (mins) cpm, 10: 10 min; for Time (mins) cpm, 20: 20 min; for % change in ratio: versus water
Protocol: The effect of using different solvents to dissolve test inhibitor compounds was tested, using the assay conditions as described in Example 4 above. […] Appropriate ‘experimental controls’ should therefore be used in all experiments.

[3] = target: T1, iNOS; test: biochemical
Protocol: Reaction conditions and data measurement were as described in Example 3 above, using 10 μl of iNOS (Cayman Chemical Company, Catalogue Number 60864) enzyme equivalent to 0.038 units/well.
The assay conditions were as described in Example 4 above employing a range of inhibitor concentrations.

SMILES: N=C(N)NN [aminoguanidine]
- IC50 [1]: ~500 µM

SMILES: CC(C)=O [acetone]
- Ratio Time 0/20 mins ([2]; 1% solvent): 6.54
- Time (mins) cpm, 0 ([2]; 1% solvent): 12884 cpm
- Time (mins) cpm, 5 ([2]; 1% solvent): 8509 cpm
- Time (mins) cpm, 10 ([2]; 1% solvent): 5169 cpm
- Time (mins) cpm, 20 ([2]; 1% solvent): 1971 cpm
- % change in ratio ([2]; 1% solvent): 8%
- Ratio Time 0/20 mins ([2]; 5% solvent): 4.78
- Time (mins) cpm, 0 ([2]; 5% solvent): 12431 cpm
- Time (mins) cpm, 5 ([2]; 5% solvent): 8409 cpm
- Time (mins) cpm, 10 ([2]; 5% solvent): 6708 cpm
- Time (mins) cpm, 20 ([2]; 5% solvent): 2601 cpm
- % change in ratio ([2]; 5% solvent): 33%
- Ratio Time 0/20 mins ([2]; 10% solvent): 3.19
- Time (mins) cpm, 0 ([2]; 10% solvent): 10201 cpm
- Time (mins) cpm, 5 ([2]; 10% solvent): 6255 cpm
- Time (mins) cpm, 10 ([2]; 10% solvent): 6464 cpm
- Time (mins) cpm, 20 ([2]; 10% solvent): 3193 cpm
- % change in ratio ([2]; 10% solvent): 55%

SMILES: CCO [ethanol]
- Ratio Time 0/20 mins ([2]; 1% solvent): 6.57
- Time (mins) cpm, 0 ([2]; 1% solvent): 13409 cpm
- Time (mins) cpm, 5 ([2]; 1% solvent): 9004 cpm
- Time (mins) cpm, 10 ([2]; 1% solvent): 5580 cpm
- Time (mins) cpm, 20 ([2]; 1% solvent): 2040 cpm
- % change in ratio ([2]; 1% solvent): 8%
- Ratio Time 0/20 mins ([2]; 5% solvent): 4.19
- Time (mins) cpm, 0 ([2]; 5% solvent): 13248 cpm
- Time (mins) cpm, 5 ([2]; 5% solvent): 7465 cpm
- Time (mins) cpm, 10 ([2]; 5% solvent): 6596 cpm
- Time (mins) cpm, 20 ([2]; 5% solvent): 3161 cpm
- % change in ratio ([2]; 5% solvent): 41%
- Ratio Time 0/20 mins ([2]; 10% solvent): 3.23
- Time (mins) cpm, 0 ([2]; 10% solvent): 12008 cpm
- Time (mins) cpm, 5 ([2]; 10% solvent): 6316 cpm
- Time (mins) cpm, 10 ([2]; 10% solvent): 5987 cpm
- Time (mins) cpm, 20 ([2]; 10% solvent): 3715 cpm
- % change in ratio ([2]; 10% solvent): 54%

SMILES: C[S+](C)[O-] [DMSO]
- Ratio Time 0/20 mins ([2]; 1% solvent): 6.39
- Time (mins) cpm, 0 ([2]; 1% solvent): 10324 cpm
- Time (mins) cpm, 5 ([2]; 1% solvent): 7128 cpm
- Time (mins) cpm, 10 ([2]; 1% solvent): 4330 cpm
- Time (mins) cpm, 20 ([2]; 1% solvent): 1615 cpm
- % change in ratio ([2]; 1% solvent): 10%
- Ratio Time 0/20 mins ([2]; 5% solvent): 5.12
- Time (mins) cpm, 0 ([2]; 5% solvent): 8530 cpm
- Time (mins) cpm, 5 ([2]; 5% solvent): 4166 cpm
- Time (mins) cpm, 10 ([2]; 5% solvent): 4453 cpm
- Time (mins) cpm, 20 ([2]; 5% solvent): 1665 cpm
- % change in ratio ([2]; 5% solvent): 28%
- Ratio Time 0/20 mins ([2]; 10% solvent): 3.10
- Time (mins) cpm, 0 ([2]; 10% solvent): 6630 cpm
- Time (mins) cpm, 5 ([2]; 10% solvent): 3884 cpm
- Time (mins) cpm, 10 ([2]; 10% solvent): 3666 cpm
- Time (mins) cpm, 20 ([2]; 10% solvent): 2138 cpm
- % change in ratio ([2]; 10% solvent): 56%

SMILES: CO [methanol]
- Ratio Time 0/20 mins ([2]; 1% solvent): 7.56
- Time (mins) cpm, 0 ([2]; 1% solvent): 14914 cpm
- Time (mins) cpm, 5 ([2]; 1% solvent): 8639 cpm
- Time (mins) cpm, 10 ([2]; 1% solvent): 4989 cpm
- Time (mins) cpm, 20 ([2]; 1% solvent): 1973 cpm
- Ratio Time 0/20 mins ([2]; 5% solvent): 7.13
- Time (mins) cpm, 0 ([2]; 5% solvent): 15317 cpm
- Time (mins) cpm, 5 ([2]; 5% solvent): 7939 cpm
- Time (mins) cpm, 10 ([2]; 5% solvent): 5466 cpm
- Time (mins) cpm, 20 ([2]; 5% solvent): 2147 cpm
- Ratio Time 0/20 mins ([2]; 10% solvent): 6.32
- Time (mins) cpm, 0 ([2]; 10% solvent): 12488 cpm
- Time (mins) cpm, 5 ([2]; 10% solvent): 6631 cpm
- Time (mins) cpm, 10 ([2]; 10% solvent): 4698 cpm
- Time (mins) cpm, 20 ([2]; 10% solvent): 1975 cpm
- % change in ratio ([2]; 10% solvent): 10%

SMILES: CCSC(=N)N [SEITU, 2-ethyl-2-thiopseudourea hydrobromide]
- IC50 [3]: 0.032 µM
